Broadly, the Kb is the affinity of an antagonist, worked out from how it opposes an agonist. Lower therefore signals higher antagonist affinity. Usually Ki stands for the equilibrium dissociation constant of an inhibitor or competing ligand from its target. High values mean lower affinity, low ones higher affinity. For orientation: IC50 means the midpoint of a concentration-inhibition curve.

In ChEMBL document CHEMBL1159191, “2-alkyl-4-ethyl-5-[6-methyl-6-(2H-tetrazol-5-yl)heptyloxy]phenol leukotriene B4 receptor antagonists” (Bioorg Med Chem Lett, 1995) one finds Kb, Ki and IC50 data, which are given here for seven compounds.

For assay [1], the species on record is Cavia porcellus. The assay can be described thus: Compound was evaluated for antagonism of LTB4 effect on guinea pig lung strip contraction. The class given is functional.
Assay [2] has as its target Leukotriene B4 receptor 1 (Homo sapiens, UniProt Q15722). The assay can be described thus: Binding affinity against human neutrophil Receptor.
Assay [3] deals with Leukotriene B4 receptor (Homo sapiens, UniProt Q9NPC1+Q15722). The assay can be described thus: LTB4-induced up-regulation of CD11b/CD18 in human neutrophils. The class given is functional.

Chain of Leukotriene B4 receptor 1 (Q15722 whole entry): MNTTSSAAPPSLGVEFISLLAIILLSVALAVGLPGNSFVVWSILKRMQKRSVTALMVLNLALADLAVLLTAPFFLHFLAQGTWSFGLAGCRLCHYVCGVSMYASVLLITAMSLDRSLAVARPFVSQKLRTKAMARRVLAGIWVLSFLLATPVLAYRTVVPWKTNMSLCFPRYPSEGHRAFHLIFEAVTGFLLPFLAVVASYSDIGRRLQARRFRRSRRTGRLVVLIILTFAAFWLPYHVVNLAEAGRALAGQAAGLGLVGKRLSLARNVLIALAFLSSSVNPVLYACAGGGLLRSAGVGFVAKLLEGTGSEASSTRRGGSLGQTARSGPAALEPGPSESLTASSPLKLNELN

Regarding `CCCCc1cc(CC)c(OCCCCCC(C)(C)c2nn[nH]n2)cc1O`, in assay [1], the Kb was 53 nM.

For the compound `CCCCCOc1cc(CC)c(OCCCCCC(C)(C)c2nn[nH]n2)cc1O`, the antagonist dissociation constant (Kb) in assay [1] was 216 nM.

Compound `CCc1cc(OC)c(O)cc1OCCCCCC(C)(C)c1nn[nH]n1` gave an antagonist equilibrium constant (Kb) in assay [1] of 222 nM.

In assay [1], `CCOc1cc(CC)c(OCCCCCC(C)(C)c2nn[nH]n2)cc1O` showed a Kb of 264 nM.

Turning to `CCCCCCc1cc(CC)c(OCCCCCC(C)(C)c2nn[n-]n2)cc1O.[Na+]`, the inhibitory constant (Ki) in assay [2] was determined as 28.4 nM. The Kb in assay [1] was determined as 688 nM. In assay [3], this compound yielded an IC50 of 878 nM.

As to `CCCc1cc(CC)c(OCCCCCC(C)(C)c2nn[nH]n2)cc1O`, the inhibition constant Ki in assay [2] was found to be 5.53 nM. This compound displayed a Kb in assay [1] of 34 nM.

In assay [2], `CCc1cc(CC)c(OCCCCCC(C)(C)c2nn[n-]n2)cc1O.[Na+]` came in with a Ki of 5.14 nM. Moreover, the antagonist equilibrium constant (Kb) in assay [1] amounted to 167 nM. The same compound had an IC50 in assay [3] of 179 nM.
